25 compounds from article PMC6271384, “Synthesis, Cytotoxicity and Mechanistic Evaluation of 4-Oxoquinoline-3-carboxamide Derivatives: Finding New Potential Anticancer Drugs” (Molecules, 2014) can be followed below.

For data set [1], the system named is HCT-116 colon cancer cell line. The data set is described as follows: MTT cytotoxicity, colon cancer cell line. Particulars: 95% confidence interval in brackets. The data set is classed as cell-based. The protocol: (§1) The 4-oxoquinoline-3-carboxamide derivatives (0.3125–20 μM) were tested for cytotoxic activity against three cancer cell lines: HCT-116 (colon), ACP03 (gastric), and MDAMB-231 (breast) (Table 1). Active derivatives were also tested against a normal fibroblast cell line (MRC-5). All cell lines were maintained in DMEM medium supplemented with 10% fetal bovine serum, 2 mM glutamine, 100 U/mL penicillin, and 100 µg/mL streptomycin and were incubated at 37 °C with 5% CO2. Each derivative was dissolved with DMSO to a concentration of 10 mM. The final concentration of DMSO in the culture medium was kept at a constant value below 0.1% (v/v). The derivatives (0.3125–20 µM) were incubated with the cells for 72 h. The negative control contained the same amount of DMSO ([…]). Cell viability was determined by the reduction of the yellow dye 3-(4,5-dimethyl-2-thiazol)-2,5-diphenyl-2H-tetrazolium bromide (MTT) to a blue formazan product as described by Mosmann.
(§2) In the MTT experiments, the results were analyzed according to their means and standard errors in the program GraphPad Prism. Each sample was analyzed in triplicate.

Data set [2] relates to MDAMB231 breast cancer cell line. The data set is described as follows: MTT cytotoxicity, breast cancer cell line. The note with it: 95% confidence interval in brackets. The class given is cell-based. The procedure:
as §1, §2

In data set [3] the test system is ACP-03 (ACP03) gastric cancer cell line. Briefly: MTT cytotoxicity, gastric cancer cell line. The data set is classed as cell-based. Particulars: for IC50: gastric cancer cell line, MTT, 72 h, 95% confidence interval in brackets. The procedure: as §1, §2
The test system of the next data set is mouse erythrocytes. The data set is described as follows: Hemolytic assay (cell membrane disruption). The data set is classed as cell-based. The note with it: result in words. The protocol: (§3) The assay was performed in 96-well plates using a 2% mouse erythrocyte suspension in 0.85% NaCl containing 10 mM CaCl2. Derivatives 10–18, diluted as described above, were tested at 250 µg/mL. After incubation at room temperature for 1 h and centrifugation, the supernatant was removed, and the liberated hemoglobin was measured spectrophotometrically at 540 nm. DMSO was used as a negative control, and Triton X-100 (1%) was used as a positive control.

For data set [4], the system named is MRC5 normal human fetal lung fibroblast. Briefly: MTT cytotoxicity, normal fibroblast cell line. The class given is cell-based. The note with it: for cytotoxicity in normal fibroblasts: at 20 µM, MRC-5; for IC50: normal human fetal lung fibroblast, MTT, 72 h, 95% confidence interval in brackets. The protocol: as §1, §2
The target of data set [5] is T1, Human topoisomerase IIα (TopoIIα) (Homo sapiens, UniProt P11388).
T1 construct: purchased TopoGEN, Inc. (Columbus, OH, USA)
The data set is described as follows: DNA relaxation assay (Topoisomerase II Drug Screening Kit). The class given is biochemical. The note with it: 100 µM compound, 10 U enzyme, 37 °C, 30 min, agarose gel. The procedure:
Human topoisomerase IIα (TopoIIα) was obtained from TopoGEN, Inc. (Columbus, OH, USA). Proteinase K from Tritirachium album was obtained from Sigma-Aldrich, Inc. (St. Louis, MO, USA) and was dissolved in DNase free water. A TAE gel electrophoresis buffer was used in this assay.
The inhibitory effects of the derivatives on human TopoIIα were measured using a Eukaryotic Topoisomerase II Drug Screening Kit (TopoGEN, Inc.). All derivatives were dissolved in DMSO immediately prior to testing.
The substances were tested at a fixed concentration of 0.1 mM. […] Supercoiled plasmid DNA (pRYG, 200 ng) was incubated with human TopoIIα (10 U) at 37 °C for 30 min in relaxation buffers in the absence or presence of derivatives (final volume is 20 μL). The order of reagent addition was buffer, test derivative, Topo IIα and finally DNA.
The assay samples were analyzed by electrophoresis on a 1% agarose gel without EtdBr (25 V, 18 h, room temperature) in TAE buffer, followed by staining in 0.5 μg/mL of EtdBr to allow for observation of the DNA bands under UV light.

Data set [6] can be described thus: Hemolytic assay (cell membrane disruption). The class given is cell-based, mouse. The note with it: 2% mouse erythrocyte suspension, 1 h, room temperature; read-out: Hemolysis (EC50). The protocol: as §3

Each structure is given as a SMILES string.

T1 sequence (P11388 whole entry): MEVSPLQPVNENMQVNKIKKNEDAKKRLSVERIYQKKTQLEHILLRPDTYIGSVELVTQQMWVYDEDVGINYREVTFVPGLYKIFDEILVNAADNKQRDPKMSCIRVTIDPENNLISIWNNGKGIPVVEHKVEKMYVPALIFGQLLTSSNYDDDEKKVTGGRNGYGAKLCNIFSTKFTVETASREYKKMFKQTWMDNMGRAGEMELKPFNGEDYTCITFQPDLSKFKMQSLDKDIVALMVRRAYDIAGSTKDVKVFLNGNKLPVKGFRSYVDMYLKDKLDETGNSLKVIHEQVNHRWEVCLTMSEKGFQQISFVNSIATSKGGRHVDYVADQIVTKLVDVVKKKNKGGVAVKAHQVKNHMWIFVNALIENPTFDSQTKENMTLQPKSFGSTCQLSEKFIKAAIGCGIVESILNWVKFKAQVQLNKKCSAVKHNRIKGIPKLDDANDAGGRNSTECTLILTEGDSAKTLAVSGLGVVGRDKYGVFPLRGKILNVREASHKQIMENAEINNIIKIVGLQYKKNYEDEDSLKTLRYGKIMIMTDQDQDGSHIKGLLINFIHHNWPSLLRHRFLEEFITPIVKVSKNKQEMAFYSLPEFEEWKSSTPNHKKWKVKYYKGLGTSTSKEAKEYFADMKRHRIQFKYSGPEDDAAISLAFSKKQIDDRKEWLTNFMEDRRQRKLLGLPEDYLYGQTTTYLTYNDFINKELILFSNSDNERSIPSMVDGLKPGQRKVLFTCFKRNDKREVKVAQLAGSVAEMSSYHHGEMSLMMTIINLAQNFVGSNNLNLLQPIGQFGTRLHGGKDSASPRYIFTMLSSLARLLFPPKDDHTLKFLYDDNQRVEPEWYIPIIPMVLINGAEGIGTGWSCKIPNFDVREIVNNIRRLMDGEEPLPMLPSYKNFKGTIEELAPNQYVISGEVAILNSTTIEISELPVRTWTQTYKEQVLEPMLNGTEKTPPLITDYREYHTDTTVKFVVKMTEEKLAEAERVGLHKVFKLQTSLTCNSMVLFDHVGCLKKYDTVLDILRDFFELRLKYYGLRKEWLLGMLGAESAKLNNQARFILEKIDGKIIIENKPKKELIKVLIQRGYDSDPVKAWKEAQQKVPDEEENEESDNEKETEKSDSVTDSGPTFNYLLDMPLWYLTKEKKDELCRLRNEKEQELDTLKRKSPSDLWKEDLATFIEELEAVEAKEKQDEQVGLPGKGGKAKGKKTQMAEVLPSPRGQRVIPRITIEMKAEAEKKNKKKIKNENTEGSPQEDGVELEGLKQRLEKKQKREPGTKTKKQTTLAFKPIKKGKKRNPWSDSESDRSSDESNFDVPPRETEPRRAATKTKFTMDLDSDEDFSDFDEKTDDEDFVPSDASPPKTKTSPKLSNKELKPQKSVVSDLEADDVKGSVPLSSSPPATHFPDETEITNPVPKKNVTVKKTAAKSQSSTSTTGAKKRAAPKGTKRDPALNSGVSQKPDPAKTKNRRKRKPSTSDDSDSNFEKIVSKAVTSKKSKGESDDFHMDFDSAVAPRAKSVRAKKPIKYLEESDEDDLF

As for `O=C(Nc1cc(Cl)ccc1Cl)c1c[nH]c2ccccc2c1=O` [Derivative 17a, 4-Oxo-N'-(2,5-dichlorophenyl)-1,4-dihydroquinoline-3-carboxamide], the IC50 in data set [1] (72 h) and in data set [2] (72 h) was over 10 µM in each case.

Consider `O=C(NC1CCCCC1)c1c[nH]c2ccccc2c1=O` [Derivative 11a, 4-Oxo-N'-cyclohexyl-1,4-dihydroquinoline-3-carboxamide], for which the 50% inhibitory concentration (IC50) in data set [1] (72 h) and in data set [2] (72 h) was over 10 µM throughout.

On to `Cc1ccc(NC(=O)c2c[nH]c3ccccc3c2=O)cc1` [Derivative 16a, 4-Oxo-N'-(p-tolyl)-1,4-dihydroquinoline-3-carboxamide], for which the IC50 in data set [1] (72 h) and in data set [2] (72 h) was over 10 µM in each case.

Regarding `O=C(NCc1ccc(Cl)cc1)c1c[nH]c2cc(Cl)ccc2c1=O` [Derivative 10c, 7-Chloro-4-oxo-N'-(4-chlorobenzyl)-1,4-dihydroquinoline-3-carboxamide], the half-maximal inhibitory concentration (IC50) in data set [1] (72 h) and in data set [2] (72 h) was over 10 µM each time.

For the compound `COc1ccc(OC)c(NC(=O)c2c[nH]c3cc(Cl)ccc3c2=O)c1` [Derivative 18c, 7-Chloro-4-oxo-N'-(2,5-dimethoxyphenyl)-1,4-dihydroquinoline-3-carboxamide], the IC50 in data set [1] (72 h) and in data set [2] (72 h) was over 10 µM throughout.

With `O=C(Nc1cc(Cl)ccc1Cl)c1c[nH]c2ccc(Cl)cc2c1=O` [Derivative 17b, 6-Chloro-4-oxo-N'-(2,5-dichlorophenyl)-1,4-dihydroquinoline-3-carboxamide], the IC50 (commonly the concentration at which inhibition is half-maximal) in data set [3] was 5.18 µM; in data set [1] (72 h), over 10 µM; in data set [2] (72 h), over 10 µM; in data set [4], over 20 µM. Also, the “hemolytical activity against blood cells” value in the data set on mouse erythrocytes is reported as “no hemolytical activity”. For the same compound, the “cytotoxicity in normal fibroblasts” value in data set [4] is on record as “did not display cytotoxicity”. For the same compound, the “inhibition of supercoiled DNA (pRYG) relaxation by topoisomerase II” value in data set [5] is on record as “only the SC band is observed, which indicates topoisomerase inhibition”.

Consider `O=C(NC1CCCCC1)c1c[nH]c2cc(Cl)ccc2c1=O` [Derivative 11c, 7-Chloro-4-oxo-N'-cyclohexyl-1,4-dihydroquinoline-3-carboxamide], for which the IC50 in data set [1] (72 h) and in data set [2] (72 h) was over 10 µM in each case.

For `O=C(NCc1ccc(Cl)cc1)c1c[nH]c2ccccc2c1=O` [Derivative 10a, 4-Oxo-N'-(4-chlorobenzyl)-1,4-dihydroquinoline-3-carboxamide], the concentration for half-maximal inhibition (IC50) in data set [1] (72 h) and in data set [2] (72 h) was over 10 µM in each case.

Turning to `Cc1ccc(NC(=O)c2c[nH]c3cc(Cl)ccc3c2=O)cc1` [Derivative 16c, 7-Chloro-4-oxo-N'-(p-tolyl)-1,4-dihydroquinoline-3-carboxamide], the 50% inhibitory concentration (IC50) in data set [1] (72 h) and in data set [2] (72 h) was over 10 µM each time.

As for `O=C(Nc1ccccc1)c1c[nH]c2ccc(Cl)cc2c1=O` [Derivative 15b, 6-Chloro-4-oxo-N'-phenyl-1,4-dihydroquinoline-3-carboxamide], the IC50 in data set [1] (72 h) and in data set [2] (72 h) was over 10 µM each time.

As to `O=C(Nc1ccc(Cl)cc1)c1c[nH]c2ccccc2c1=O` [Derivative 12a, 4-oxo-N'-(4-Chlorophenyl)-1,4-dihydroquinoline-3-carboxamide], the 50% inhibitory concentration (IC50) in data set [1] (72 h) and in data set [2] (72 h) was over 10 µM in each case.

As to `COc1ccc(OC)c(NC(=O)c2c[nH]c3ccc(Cl)cc3c2=O)c1` [Derivative 18b, 6-Chloro-4-oxo-N'-(2,5-dimethoxyphenyl)-1,4-dihydroquinoline-3-carboxamide], the IC50 in data set [1] (72 h) and in data set [2] (72 h) was over 10 µM in each case.

For `O=C(Nc1ccccc1)c1c[nH]c2cc(Cl)ccc2c1=O` [Derivative 15c, 7-Chloro-4-oxo-N'-phenyl-1,4-dihydroquinoline-3-carboxamide], the half-maximal inhibitory concentration (IC50) in data set [1] (72 h) and in data set [2] (72 h) was over 10 µM in each case.

Turning to `O=C(Nc1ccc(Cl)cc1)c1c[nH]c2ccc(Cl)cc2c1=O` [Derivative 12b, 6-Chloro-4-oxo-N'-(4-chlorophenyl)-1,4-dihydroquinoline-3-carboxamide], the IC50 in data set [1] (72 h) and in data set [2] (72 h) was over 10 µM in each case.

For `O=C(Nc1cc(Cl)ccc1Cl)c1c[nH]c2cc(Cl)ccc2c1=O` [Derivative 17c, 7-Chloro-4-oxo-N'-(2,5-dichlorophenyl)-1,4-dihydroquinoline-3-carboxamide], the half-inhibitory concentration (IC50) in data set [1] (72 h) and in data set [2] (72 h) was over 10 µM each time.

`O=C(NCc1ccc(Cl)cc1)c1c[nH]c2ccc(Cl)cc2c1=O` [Derivative 10b, 6-Chloro-4-oxo-N'-(4-chlorobenzyl)-1,4-dihydroquinoline-3-carboxamide]: the IC50 in data set [1] (72 h) and in data set [2] (72 h) was over 10 µM throughout.

Regarding `COc1ccc(OC)c(NC(=O)c2c[nH]c3ccccc3c2=O)c1` [Derivative 18a, 4-Oxo-N'-(2,5-dimethoxyphenyl)-1,4-dihydroquinoline-3-carboxamide], the half-inhibitory concentration (IC50) in data set [1] (72 h) and in data set [2] (72 h) was over 10 µM throughout.

For `Cc1ccc(NC(=O)c2c[nH]c3ccc(Cl)cc3c2=O)cc1` [Derivative 16b, 6-Chloro-4-oxo-N'-(p-tolyl)-1,4-dihydroquinoline-3-carboxamide], the IC50 in data set [3] is 1.92 µM; in data set [1] (72 h) it was over 10 µM; in data set [2] (72 h), over 10 µM; in data set [4], over 20 µM. For the same compound, the “hemolytical activity against blood cells” value in the data set on mouse erythrocytes is “no hemolytical activity”. In data set [4], the “cytotoxicity in normal fibroblasts” value was “did not display cytotoxicity”. For the same compound, the “inhibition of supercoiled DNA (pRYG) relaxation by topoisomerase II” value in data set [5] was “only the SC band is observed, which indicates topoisomerase inhibition”.

With `COc1cccc2c1C(=O)c1c(O)c3c(c(O)c1C2=O)C[C@@](O)(C(=O)CO)C[C@@H]3O[C@H]1C[C@H](N)[C@H](O)[C@H](C)O1` [DOXORUBICIN, doxorubicin, reference compound], the “selectivity against cancer cells versus normal cells” value in data set [3] (ACP-03 versus MRC-5) was “no selectivity”. Also, the IC50 in data set [3] was determined as 0.274 µM; in data set [1] (Homo sapiens, HCT-116, 72 h) it was 0.1 µM; in data set [2] (Homo sapiens, MDA-MB-231, 72 h), 0.43 µM; in data set [4] (MRC5), 0.2 µM. The EC50 (as a rule, the concentration that produces a half-maximal response) at 1 h in data set [6] was over 200 µg/mL.

`O=C(NC1CCCCC1)c1c[nH]c2ccc(Cl)cc2c1=O` [Derivative 11b, 6-Chloro-4-oxo-N'-cyclohexyl-1,4-dihydroquinoline-3-carboxamide]: the IC50 in data set [1] (72 h) and in data set [2] (72 h) was over 10 µM each time.

Regarding `O=C(Nc1ccc(F)cc1)c1c[nH]c2cc(Cl)ccc2c1=O` [Derivative 13b, 7-Chloro-4-oxo-N'-(4-fluorphenyl)-1,4-dihydroquinoline-3-carboxamide], the IC50 in data set [1] (72 h) and in data set [2] (72 h) was over 10 µM each time.

As to `O=C(Nc1ccccc1)c1c[nH]c2ccccc2c1=O` [Derivative 15a, 4-oxo-N'-Phenyl-1,4-dihydroquinoline-3-carboxamide], the half-maximal inhibitory concentration (IC50) in data set [1] (72 h) and in data set [2] (72 h) was over 10 µM in each case.

Regarding `COc1ccc(NC(=O)c2c[nH]c3ccccc3c2=O)cc1` [Derivative 14a, 4-oxo-N'-(4-Methoxyphenyl)-1,4-dihydroquinoline-3-carboxamide], the IC50 in data set [1] (72 h) and in data set [2] (72 h) was over 10 µM in each case.

Take `O=C(Nc1ccc(F)cc1)c1c[nH]c2ccccc2c1=O` [Derivative 13a, 4-oxo-N'-(4-Fluorophenyl)-1,4-dihydroquinoline-3-carboxamide]: the IC50 in data set [1] (72 h) and in data set [2] (72 h) was over 10 µM each time.

As to `COc1ccc(NC(=O)c2c[nH]c3cc(Cl)ccc3c2=O)cc1` [Derivative 14b, 7-Chloro-4-oxo-N'-(4-methoxyphenyl)-1,4-dihydroquinoline-3-carboxamide], the IC50 in data set [1] (72 h) and in data set [2] (72 h) was over 10 µM in each case.
